According to patent publication US20240392271A1, “ENGINEERED CASX REPRESSOR SYSTEMS” (Scribe Therapeutics Inc., priority 2021, published 2024):

Experiments:
[1] = test system: HBEGF locus; format: cell-based, human; conditions: dCasX491-KRAB lentiviral library, spacer 34.28, HEK293T, 2 ng/ml diphtheria toxin 48 hours
[2] = test system: B2M promoter; assay: B2M repression with gRNAs tiled across the B2M promoter, dXR1 vs ELXR #1 (Example 10); format: cell-based, human; conditions: HEK293T, six days after lipofection, unlike the effects seen with dXR1
Procedure: ELXR #1 containing the ZIM3-KRAB domain, as described in Example 6, and dXR1, as described in Example 1, were assessed in this experiment. Various gRNAs with scaffold 174 containing a B2M-targeting spacer were used in this experiment.
The next day, cells were selected with puromycin for four additional days. […] HEK293T cells transfected with either ELXR #1 or dXR1 with a non-targeting gRNA was included as an experimental control. FIG. 21A is a schematic illustrating the tiling of the various B2M-targeting gRNAs (spacers listed in Table 31) within a ˜1 KB window of the B2M promoter.

Substance	log2 (fold change) in abundance of the KRAB domain before and after selection [1]	B2M repression (HLA-negative cells) mediated by ELXR #1 with the spacer [2]
Zim3: ZIM3 KRAB domain, SEQ ID NO: 337 [reference compound]	1.7787	–
spacer 7.165: B2M-targeting, ELXR-specific spacer, UCCCUAUGUCCUUGCUGUUU, SEQ ID NO: 59667 (listed as RNA, chemistry not fully specified)	–	meaningful B2M repression
